As usually defined, the IC50 is the concentration needed to halve the response being measured.

T1 sequence (P08183 whole entry): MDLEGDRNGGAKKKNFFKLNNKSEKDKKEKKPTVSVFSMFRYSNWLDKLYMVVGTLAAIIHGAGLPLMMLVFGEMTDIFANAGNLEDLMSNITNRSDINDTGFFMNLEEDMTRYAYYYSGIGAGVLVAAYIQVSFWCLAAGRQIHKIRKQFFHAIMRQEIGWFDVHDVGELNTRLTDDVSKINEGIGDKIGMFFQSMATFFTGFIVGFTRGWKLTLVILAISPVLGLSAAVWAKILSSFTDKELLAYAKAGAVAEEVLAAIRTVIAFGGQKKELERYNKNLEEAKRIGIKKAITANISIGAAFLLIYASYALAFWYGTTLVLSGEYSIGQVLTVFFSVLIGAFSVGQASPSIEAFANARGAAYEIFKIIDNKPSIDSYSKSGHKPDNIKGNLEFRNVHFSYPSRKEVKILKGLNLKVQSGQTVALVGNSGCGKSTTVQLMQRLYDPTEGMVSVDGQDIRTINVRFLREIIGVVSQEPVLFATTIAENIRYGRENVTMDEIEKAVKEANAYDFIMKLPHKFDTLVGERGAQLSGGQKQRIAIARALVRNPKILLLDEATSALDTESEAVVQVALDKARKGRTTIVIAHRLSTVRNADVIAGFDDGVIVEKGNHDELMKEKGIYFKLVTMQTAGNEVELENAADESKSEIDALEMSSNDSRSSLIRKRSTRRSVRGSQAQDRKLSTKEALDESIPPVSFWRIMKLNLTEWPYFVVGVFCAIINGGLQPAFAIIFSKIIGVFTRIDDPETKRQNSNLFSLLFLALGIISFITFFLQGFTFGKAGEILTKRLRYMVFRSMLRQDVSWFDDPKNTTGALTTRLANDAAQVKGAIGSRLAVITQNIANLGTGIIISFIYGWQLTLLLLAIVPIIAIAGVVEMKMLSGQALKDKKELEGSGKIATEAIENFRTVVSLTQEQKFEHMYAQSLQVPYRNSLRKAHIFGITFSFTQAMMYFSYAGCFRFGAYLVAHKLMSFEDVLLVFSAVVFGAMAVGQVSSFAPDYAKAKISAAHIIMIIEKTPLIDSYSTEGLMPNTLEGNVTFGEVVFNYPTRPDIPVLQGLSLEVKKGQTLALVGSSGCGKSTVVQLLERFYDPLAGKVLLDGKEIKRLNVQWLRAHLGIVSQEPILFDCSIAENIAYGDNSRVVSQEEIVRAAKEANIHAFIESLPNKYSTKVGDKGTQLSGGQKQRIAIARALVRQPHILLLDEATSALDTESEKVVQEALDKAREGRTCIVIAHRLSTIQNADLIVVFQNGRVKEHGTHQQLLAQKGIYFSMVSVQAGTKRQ

One data set relates to HCT-116. Put plainly: Cytotoxicity against human HCT116 cells assessed as cell viability after 48 hrs by MTT assay. The data set is classed as cell-based. Conditions: HCT-116, 48 h; call rule not given here.
Consider `COc1cc2c(cc1OC)CN(CCc1ccc(NC(=O)c3ccccc3N(S(=O)(=O)c3ccc(Br)cc3)S(=O)(=O)c3ccc(Br)cc3)cc1)CC2`, for which the IC50 was > 100 µM.

In another data set the test system is SW-620. Put plainly: Cytotoxicity against human SW620 cells assessed as cell viability after 48 hrs by MTT assay. The data set is classed as cell-based. The note with it: SW-620, 48 h. On the technique in general: Tetrazolium assays rely on reduction of a dye to a coloured formazan, in cell work by metabolically active cells.
`COc1cc2c(cc1OC)CN(CCc1ccc(NC(=O)c3ccccc3N(S(=O)(=O)c3ccc(Br)cc3)S(=O)(=O)c3ccc(Br)cc3)cc1)CC2`: the IC50 was > 100 µM.

Tested on in a further data set: not listed separately
The data set can be described thus: Cytotoxicity against human SW620/AD300 cells assessed as cell viability after 48 hrs by MTT assay. The format is cell-based. The note with it: SW-620, 48 h.
For the compound `COc1cc2c(cc1OC)CN(CCc1ccc(NC(=O)c3ccccc3N(S(=O)(=O)c3ccc(Br)cc3)S(=O)(=O)c3ccc(Br)cc3)cc1)CC2`, the IC50 was > 100 µM.

Tested on in a further data set: not listed separately
The data set can be described thus: Cytotoxicity against human CCD-18Co cells assessed as cell viability after 48 hrs by MTT assay. The format is cell-based.
Conditions: not given
With `COc1cc2c(cc1OC)CN(CCc1ccc(NC(=O)c3ccccc3N(S(=O)(=O)c3ccc(Br)cc3)S(=O)(=O)c3ccc(Br)cc3)cc1)CC2`, the IC50 was > 100 µM.

Tested on in a further data set: not listed separately
The data set can be described thus: Cytotoxicity against human HFE cells assessed as cell viability after 72 hrs by MTT assay.
Conditions: not given
The format is cell-based.
Take `COc1cc2c(cc1OC)CN(CCc1ccc(NC(=O)c3ccccc3N(S(=O)(=O)c3ccc(Br)cc3)S(=O)(=O)c3ccc(Br)cc3)cc1)CC2`: the half-maximal inhibitory concentration (IC50) was > 5 µM.

The test system of another data set is Hepatocyte. The data set can be described thus: Cytotoxicity against rat hepatocytes assessed as cell viability after 72 hrs by MTT assay. The data set is classed as cell-based. Conditions: rat, hepatocytes.
In the case of `COc1cc2c(cc1OC)CN(CCc1ccc(NC(=O)c3ccccc3N(S(=O)(=O)c3ccc(Br)cc3)S(=O)(=O)c3ccc(Br)cc3)cc1)CC2`, the Activity result is given as “Non-toxic”.

Another data set concerns the target T1, ATP-dependent translocase ABCB1 (Homo sapiens, UniProt P08183). The data set can be described thus: Inhibition of p-glycoprotein-mediated rhodamine-123 efflux in human K562/p-gp cells at 0.5 uM after 1 hr by flow cytometry relative to tariquidar. The format is cell-based. The note with it: 1 h, 0.5 µM.
With `COc1cc2c(cc1OC)CN(CCc1ccc(NC(=O)c3ccccc3N(S(=O)(=O)c3ccc(Br)cc3)S(=O)(=O)c3ccc(Br)cc3)cc1)CC2`, the “inhibition (INH)” value was “Active”.

For the next data set, the target named is T1, ATP-dependent translocase ABCB1. The data set can be described thus: Inhibition of p-glycoprotein-mediated rhodamine-123 efflux in human K562/p-gp cells after 1 hr by flow cytometry. The format is cell-based.
Conditions: not given
Regarding `COc1cc2c(cc1OC)CN(CCc1ccc(NC(=O)c3ccccc3N(S(=O)(=O)c3ccc(Br)cc3)S(=O)(=O)c3ccc(Br)cc3)cc1)CC2`, the “inhibition (INH)” value is given as “Dose-dependent effect”.

Another data set has as its system K562. The data set can be described thus: Effect on rhodamine-123 efflux in wild type human K562 cells at 0.5 uM after 1 hr by flow cytometry. The format is ADME, cell-based. The note with it: k562, 1 h. Background: In flow cytometry, cells or beads pass a laser one at a time.
Take `COc1cc2c(cc1OC)CN(CCc1ccc(NC(=O)c3ccccc3N(S(=O)(=O)c3ccc(Br)cc3)S(=O)(=O)c3ccc(Br)cc3)cc1)CC2`: the Activity result was “Non-toxic”.

A further data set has as its target T1, ATP-dependent translocase ABCB1. Put plainly: Inhibition of p-glycoprotein-mediated doxorubicin efflux in human K562/p-gp cells at 1 uM after 1 hr by flow cytometry. The data set is classed as cell-based.
Conditions: not given
With `COc1cc2c(cc1OC)CN(CCc1ccc(NC(=O)c3ccccc3N(S(=O)(=O)c3ccc(Br)cc3)S(=O)(=O)c3ccc(Br)cc3)cc1)CC2`, the “inhibition (INH)” value is reported as “Active”.

The target in a further data set is Multidrug resistance-associated protein 1 (Homo sapiens, UniProt P33527). The data set can be described thus: Inhibition of MRP1 (unknown origin)-mediated calcein-AM efflux expressed in HEK293/MRP1 cells at 0.5 uM after 1 hr by flow cytometry. The data set is classed as cell-based. The note with it: hek293/mrp1, 1 h.
Multidrug resistance-associated protein 1, sequence (P33527 whole entry): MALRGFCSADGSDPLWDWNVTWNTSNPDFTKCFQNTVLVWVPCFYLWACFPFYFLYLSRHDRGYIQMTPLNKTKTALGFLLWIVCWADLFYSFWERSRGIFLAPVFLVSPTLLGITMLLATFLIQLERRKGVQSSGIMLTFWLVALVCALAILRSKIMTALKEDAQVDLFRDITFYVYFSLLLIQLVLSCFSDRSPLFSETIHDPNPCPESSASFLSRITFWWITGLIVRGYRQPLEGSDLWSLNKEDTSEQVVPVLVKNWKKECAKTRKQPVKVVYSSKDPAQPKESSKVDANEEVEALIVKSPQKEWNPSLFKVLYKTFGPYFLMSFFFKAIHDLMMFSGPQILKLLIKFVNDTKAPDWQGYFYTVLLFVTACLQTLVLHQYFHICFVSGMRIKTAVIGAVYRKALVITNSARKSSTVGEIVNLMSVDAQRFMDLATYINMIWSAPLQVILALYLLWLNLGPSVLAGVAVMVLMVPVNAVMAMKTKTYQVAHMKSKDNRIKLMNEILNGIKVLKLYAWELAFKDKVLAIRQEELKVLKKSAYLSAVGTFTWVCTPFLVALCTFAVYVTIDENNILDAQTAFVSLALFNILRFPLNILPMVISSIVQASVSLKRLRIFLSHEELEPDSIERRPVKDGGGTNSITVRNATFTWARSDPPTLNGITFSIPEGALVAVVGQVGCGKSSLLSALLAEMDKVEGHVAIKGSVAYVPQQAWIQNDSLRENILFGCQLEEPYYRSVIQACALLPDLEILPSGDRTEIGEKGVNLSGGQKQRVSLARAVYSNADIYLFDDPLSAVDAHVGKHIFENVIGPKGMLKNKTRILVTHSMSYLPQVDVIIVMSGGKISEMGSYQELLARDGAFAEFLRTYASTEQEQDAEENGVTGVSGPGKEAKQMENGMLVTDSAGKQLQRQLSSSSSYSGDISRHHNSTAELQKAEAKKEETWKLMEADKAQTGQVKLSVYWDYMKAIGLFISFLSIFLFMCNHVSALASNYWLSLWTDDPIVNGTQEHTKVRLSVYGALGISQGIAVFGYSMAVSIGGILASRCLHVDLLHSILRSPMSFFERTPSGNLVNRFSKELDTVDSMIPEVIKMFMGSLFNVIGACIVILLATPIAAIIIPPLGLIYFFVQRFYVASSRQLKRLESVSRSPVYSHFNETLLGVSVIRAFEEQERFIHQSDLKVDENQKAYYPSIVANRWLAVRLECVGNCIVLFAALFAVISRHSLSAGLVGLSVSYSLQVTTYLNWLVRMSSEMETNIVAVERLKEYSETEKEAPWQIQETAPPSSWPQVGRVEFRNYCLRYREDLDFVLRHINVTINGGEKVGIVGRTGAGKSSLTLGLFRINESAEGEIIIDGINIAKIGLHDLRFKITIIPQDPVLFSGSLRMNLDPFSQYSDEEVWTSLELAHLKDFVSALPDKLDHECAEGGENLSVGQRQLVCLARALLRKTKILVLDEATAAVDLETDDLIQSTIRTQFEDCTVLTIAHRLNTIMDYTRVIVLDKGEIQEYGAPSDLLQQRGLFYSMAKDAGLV
`COc1cc2c(cc1OC)CN(CCc1ccc(NC(=O)c3ccccc3N(S(=O)(=O)c3ccc(Br)cc3)S(=O)(=O)c3ccc(Br)cc3)cc1)CC2`: the “inhibition (INH)” value was “Not Active”.

Tested on in another data set: not listed separately
The data set can be described thus: Potentiation of paclitaxel-induced cytotoxicity against human LCC6 cells at 200 nM after 72 hrs by SRB assay relative to control. The format is functional.
Conditions: not given
On the technique in general: The SRB assay estimates cell density from bound dye.
As for `COc1cc2c(cc1OC)CN(CCc1ccc(NC(=O)c3ccccc3N(S(=O)(=O)c3ccc(Br)cc3)S(=O)(=O)c3ccc(Br)cc3)cc1)CC2`, the “fold change (FC)” value is listed as 1.3.

The next data set deals with T1, ATP-dependent translocase ABCB1. Put plainly: Inhibition of p-glycoprotein in human LCC6/MDR cells assessed as increase of paclitaxel-induced cytotoxicity at 200 nM after 72 hrs by SRB assay relative to control. The data set is classed as cell-based. The note with it: 0.2 µM.
`COc1cc2c(cc1OC)CN(CCc1ccc(NC(=O)c3ccccc3N(S(=O)(=O)c3ccc(Br)cc3)S(=O)(=O)c3ccc(Br)cc3)cc1)CC2`: the “fold change (FC)” value worked out at 36.

Tested on in the next data set: not listed separately
Put plainly: Cytotoxicity against human LCC6 cells at 200 nM after 72 hrs by SRB assay. The note with it: lcc6, 72 h, 0.2 µM. The format is cell-based.
For `COc1cc2c(cc1OC)CN(CCc1ccc(NC(=O)c3ccccc3N(S(=O)(=O)c3ccc(Br)cc3)S(=O)(=O)c3ccc(Br)cc3)cc1)CC2`, the Activity entry is on record as “Non-toxic”.

Tested on in the next data set: not listed separately
The data set can be described thus: Cytotoxicity against human LCC6 cells expressing p-glycoprotein at 200 nM after 72 hrs by SRB assay. Conditions: lcc6, 72 h, 0.2 µM. The data set is classed as cell-based.
As for `COc1cc2c(cc1OC)CN(CCc1ccc(NC(=O)c3ccccc3N(S(=O)(=O)c3ccc(Br)cc3)S(=O)(=O)c3ccc(Br)cc3)cc1)CC2`, the Activity entry was “Non-toxic”.

The subject of the next data set is K562. Put plainly: Induction of UIC2 antibody binding to p-glycoprotein in human K562 cells at 0.5 uM preincubated for 10 mins followed by antibody addition measured after 45 mins by flow cytometry relative to tariquidar. The data set is classed as cell-based.
Conditions: not given
`COc1cc2c(cc1OC)CN(CCc1ccc(NC(=O)c3ccccc3N(S(=O)(=O)c3ccc(Br)cc3)S(=O)(=O)c3ccc(Br)cc3)cc1)CC2`: the Activity was 47%.

The species entered for the next data set is Homo sapiens. The data set can be described thus: Inhibition of p-glycoprotein (unknown origin) expressed in High five insect cell membranes assessed as ATP hydrolysis after 20 mins by colorimetric ATPase assay.
Conditions: not given
Regarding `COc1cc2c(cc1OC)CN(CCc1ccc(NC(=O)c3ccccc3N(S(=O)(=O)c3ccc(Br)cc3)S(=O)(=O)c3ccc(Br)cc3)cc1)CC2`, the inhibition result is “Dose-dependent effect”.

Values taken from ChEMBL document CHEMBL3611986, “Reversal of P-gp and BCRP-mediated MDR by tariquidar derivatives” (Eur J Med Chem, 2015).
